According to US7829665B2 (priority 2005, dated 2010):
Read-outs that look alike come from different tables or passages of the source.

How the values were obtained:
[1] = tested on: HCV sub-genomic replicon in GS4.3 cells (HuH-7 hepatoma cells); experiment: Quantitation by ELISA of Neomycin phosphotransferase II (NPTII) in the HCV sub-genomic replicon, GS4.3; assay type: cell-based, hepatitis C virus; conditions: Hepatitis C virus
Description: The HCV sub-genomic replicon (1377/NS3-3′, accession No. AJ242652), stably maintained in HuH-7 hepatoma cells, was created by Lohmann et al. Science 285: 110-113 (1999). The replicon-containing cell culture, designated GS4.3, was obtained from Dr. Christoph Seeger of the Institute for Cancer Research, Fox Chase Cancer Center, Philadelphia, Pa.
GS4.3 cells were maintained at 37° C., 5% CO2, in DMEM (Gibco 11965-092) supplemented with L-glutamine 200 mM (100×) (Gibco25030-081), non-essential amino acids (NEAA) (Biowhittaker 13-114E), heat-inactivated (HI) Fetal Bovine Serum (FBS) (Hyclone SH3007.03) and 750 μg/ml geneticin (G418) (Gibco 10131-035). Cells were sub-divided 1:3 or 4 every 2-3 days.
24 h prior to the assay, GS4.3 cells were collected, counted, and plated in 96-well plates (Costar 3585) at 7500 cells/well in 100 μl standard maintenance medium (above) and incubated in the conditions above. To initiate the assay, culture medium was removed, cells were washed once with PBS (Gibco 10010-023) and 90 μl Assay Medium (DMEM, L-glutamine, NEAA, 10% HI FBS, no G418) was added. Inhibitors were made as a 10× stock in Assay Medium, (3-fold dilutions from 10 μM to 56 pM final concentration, final DMSO concentration 1%), 10 μl were added to duplicate wells, plates were rocked to mix, and incubated as above for 72 h.
An NPTII Elisa kit was obtained from AGDIA, Inc. (Compound direct ELISA test system for Neomycin Phosphotransferase II, PSP 73000/4800). Manufacturer's instructions were followed, with some modifications. 10×PEB-1 lysis buffer was made up to include 500 μM PMSF (Sigma P7626, 50 mM stock in isopropanol). After 72 h incubation, cells were washed once with PBS and 150 μl PEB-1 with PMSF was added per well. Plates were agitated vigorously for 15 minutes, room temperature, then frozen at −70° C. Plates were thawed, lysates were mixed thoroughly, and 100 μl were applied to an NPTII Elisa plate. A standard curve was made. Lysate from DMSO-treated control cells was pooled, serially diluted with PEB-1 with PMSF, and applied to duplicate wells of the ELISA plate, in a range of initial lysate amount of 150 ul-2.5 ul. In addition, 100 μl buffer alone was applied in duplicate as a blank. Plates were sealed and gently agitated at room temperature for 2 h. Following capture incubation, the plates were washed 5×300 μl with PBS-T (0.5% Tween-20, PBS-T was supplied in the ELISA kit). For detection, a 1× dilution of enzyme conjugate diluent MRS-2 (5×) was made in PBS-T, into which 1:100 dilutions of enzyme conjugates A and B were added, as per instructions. Plates were resealed, and incubated with agitation, covered, room temperature, for 2 h. The washing was then repeated and 100 μl of room temperature TMB substrate was added. After approximately 30 minutes incubation (room temperature, agitation, covered), the reaction was stopped with 50 μl 3M sulfuric acid. Plates were read at 450 nm on a Molecular Devices Versamax plate reader.
Inhibitor effect was expressed as a percentage of DMSO-treated control signal, and inhibition curves were calculated using a 4-parameter equation: y=A+((B−A)/(1+((C/x)^D))), where C is half-maximal activity or EC50.

[2] = target: T1, full-length NS3/NS4A-2 (HCV NS3 protease) (Hepatitis C virus genotype 1a, UniProt P27958); experiment: NS3-NS4 protease assay / NS3 inhibition assay (RETS1 substrate, fluorescence kinetic read); assay type: biochemical; conditions: recombinant E. coli or Baculovirus full-length NS3 with NS4A-2; read-out: NS3-NS4 IC50
T1 construct: Recombinant E. coli or Baculovirus full-length NS3 was diluted to 3.33 μM with assay buffer; made in house; host or cells: E. coli or baculovirus (BV) expression system
How it was run: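 Ki values come from IC50 fits corrected via Ki=IC50/(1+[S]/Km), with Km 2.03 μM for E. coli and 1.74 μM for baculovirus full-length NS3. Enzyme (2 or 3 nM NS3, respectively, complexed with NS4A-2) sat with compound, top concentration 50 microM, for 10 min at room temperature. Cleavage of RETS1 (8 μM working solution) was then followed by fluorescence (335/495 nm) over 30 min.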

[3] = Huh-7, GS4.3 cells, 72 h incubation, NPTII ELISA, read-out: Replicon EC50
[4] = Huh-7, Table 26, read-out: EC50

T1 sequence (P27958 1027-1657): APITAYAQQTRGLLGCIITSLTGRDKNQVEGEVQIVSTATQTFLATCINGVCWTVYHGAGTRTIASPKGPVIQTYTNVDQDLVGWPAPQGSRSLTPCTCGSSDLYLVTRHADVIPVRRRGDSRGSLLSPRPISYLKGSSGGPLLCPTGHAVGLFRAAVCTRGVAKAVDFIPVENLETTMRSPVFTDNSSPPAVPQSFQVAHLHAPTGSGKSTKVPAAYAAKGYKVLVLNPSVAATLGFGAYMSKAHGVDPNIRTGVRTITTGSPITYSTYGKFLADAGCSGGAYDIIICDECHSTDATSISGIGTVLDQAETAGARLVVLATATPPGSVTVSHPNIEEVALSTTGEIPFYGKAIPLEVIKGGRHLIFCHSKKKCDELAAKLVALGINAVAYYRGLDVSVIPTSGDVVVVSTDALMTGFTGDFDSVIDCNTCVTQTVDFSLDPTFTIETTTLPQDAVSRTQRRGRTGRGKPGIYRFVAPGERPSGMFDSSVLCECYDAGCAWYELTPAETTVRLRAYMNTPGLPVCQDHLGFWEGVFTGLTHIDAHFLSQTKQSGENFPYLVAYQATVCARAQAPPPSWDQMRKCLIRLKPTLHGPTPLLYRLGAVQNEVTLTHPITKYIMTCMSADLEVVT

| SMILES | EC50 [1, 3] | IC50 [2] | EC50 [1, 4] | EC50 ([1]; Huh-7, 72 h, read-out: Replicon EC50) |
| --- | --- | --- | --- | --- |
| O=C(N[C@H]1CCCCC/C=C\[C@@H]2C[C@@]2(C(=O)O)NC(=O)[C@@H]2C[C@@H](OC(=O)N3Cc4cccc(Cl)c4C3)CN2C1=O)OC1CCCC1 [Compound 138] | < 1000 nM | < 100 nM |  |  |
| CC(C)(C)OC(=O)NC1CCCCC/C=C\[C@H]2C[C@@]2(C(=O)NS(=O)(=O)NCC(F)(F)F)NC(=O)C2CC(OC(=O)N3Cc4cccc(Cl)c4C3)CN2C1=O (single isomer, unassigned) [Compound 226] | < 100 nM |  |  |  |
| CC(C)(C)OC(=O)N[C@H]1CCCCC/C=C\[C@@H]2C[C@@]2(C(=O)NCCO)NC(=O)[C@@H]2C[C@@H](OC(=O)N3Cc4cccc(F)c4C3)CN2C1=O [Compound 620] | < 10000 nM | < 1000 nM |  |  |
| CC(C)(C)C(=O)N[C@H]1CCCCC/C=C\[C@@H]2C[C@@]2(C(=O)NC#N)NC(=O)C2C[C@@H](OC(=O)N3Cc4cccc(F)c4C3)CN2C1=O (stereo partly drawn) [Compound 640] | > 10000 nM | < 100 nM |  |  |
| CC(C)(C)OC(=O)N[C@H]1CCCCC/C=C\[C@@H]2C[C@@]2(C(=O)NS(=O)(=O)c2cnccc2Cl)NC(=O)[C@@H]2C[C@@H](OC(=O)N3Cc4ccccc4C3)CN2C1=O [Compound 108] | < 10000 nM | < 100 nM |  |  |
| CC(C)(C)OC(=O)N[C@H]1CCCCC/C=C\[C@@H]2C[C@@]2(C(=O)NC#N)NC(=O)C2C[C@@H](OC(=O)N3Cc4cccc(Cl)c4C3)CN2C1=O (stereo partly drawn) [Compound 641] | < 10000 nM | < 100 nM |  |  |
| CC(C)(C)OC(=O)N[C@H]1CCCCC/C=C\[C@@H]2C[C@@]2(C(=O)O)NC(=O)[C@@H]2C[C@@H](OC(=O)N3Cc4cccc(Cl)c4C3)CN2C1=O [Compound 113] | < 1000 nM | < 100 nM |  |  |
| CC(C)(C)OC(=O)N[C@H]1CCCCC/C=C\[C@@H]2C[C@@]2(C(=O)NS(=O)(=O)c2cccs2)NC(=O)[C@@H]2C[C@@H](OC(=O)N3Cc4cccc(Cl)c4C3)CN2C1=O [Compound 166] | < 100 nM | < 100 nM |  |  |
| CC(C)(C)OC(=O)N[C@H]1CCCCC/C=C\[C@@H]2C[C@@]2(C(=O)NS(=O)(=O)C2CC2)NC(=O)[C@@H]2C[C@@H](OC(=O)N3Cc4cccc(Br)c4C3)CN2C1=O [Compound 160] | < 100 nM | < 100 nM |  |  |
| CN(C(=O)[C@@]12C[C@H]1/C=C\CCCCC[C@H](NC(=O)OC(C)(C)C)C(=O)N1C[C@H](OC(=O)N3Cc4cccc(F)c4C3)C[C@H]1C(=O)N2)S(=O)(=O)C1CC1 [Compound 264] | > 10000 nM | < 10000 nM |  |  |
| CC(C)(C)OC(=O)N[C@H]1CCCCC/C=C\[C@@H]2C[C@@]2(C(=O)NS(=O)(=O)NC2CC2)NC(=O)[C@@H]2C[C@@H](OC(=O)N3Cc4cccc(Cl)c4C3)CN2C1=O [Compound 213] | < 100 nM | < 100 nM |  |  |
| N#CNC(=O)[C@@]12C[C@H]1/C=C\CCCCC[C@H](NC(=O)C1CC1)C(=O)N1C[C@H](OC(=O)N3Cc4cccc(F)c4C3)CC1C(=O)N2 (stereo partly drawn) [Compound 638] | > 10000 nM | < 1000 nM |  |  |
| O=C1N[C@]2(C(=O)NS(=O)(=O)C3CC3)C[C@H]2/C=C\CCCCC[C@H](NCC2CCCO2)C(=O)N2C[C@H](OC(=O)N3Cc4cccc(F)c4C3)C[C@@H]12 (stereo partly drawn) [Compound 916] | < 1000 nM | < 100 nM |  |  |
| O=C1N[C@]2(C(=O)NS(=O)(=O)C3CC3)C[C@H]2/C=C\CCCCC[C@H](NCc2ccccc2)C(=O)N2C[C@H](OC(=O)N3Cc4cccc(F)c4C3)C[C@@H]12 [Compound 905] | < 100 nM | < 100 nM |  |  |
| O=C(N[C@H]1CCCCC/C=C\[C@@H]2C[C@@]2(C(=O)NS(=O)(=O)C2CCCC2)NC(=O)[C@@H]2C[C@@H](OC(=O)N3CCc4ccccc4C3)CN2C1=O)OC1CCCC1 [Compound 186] | < 1000 nM | < 100 nM |  |  |
| CC(C)(C)OC(=O)N[C@H]1CCCCC/C=C\[C@@H]2C[C@@]2(C(=O)Nc2n[nH]cc2C2CC2)NC(=O)[C@@H]2C[C@@H](OC(=O)N3Cc4cccc(F)c4C3)CN2C1=O [Compound 636] | < 100 nM | < 1000 nM |  |  |
| CNC(=O)NC(=O)[C@@]12C[C@H]1/C=C\CCCCC[C@H](NC(=O)OC(C)(C)C)C(=O)N1C[C@H](OC(=O)N3Cc4ccccc4C3)C[C@H]1C(=O)N2 [Compound 702] | < 1000 nM | < 1000 nM |  |  |
| O=C(N[C@H](C(=O)N[C@H]1CCCCC/C=C\[C@@H]2C[C@@]2(C(=O)NS(=O)(=O)C2CC2)NC(=O)[C@@H]2C[C@@H](OC(=O)N3Cc4cccc(Cl)c4C3)CN2C1=O)C1CCCCC1)c1cnccn1 [Compound 263] | < 100 nM | < 100 nM |  |  |
| O=C(Cc1ccc(C(F)(F)F)cc1)N[C@H]1CCCCC/C=C\[C@@H]2C[C@@]2(C(=O)NS(=O)(=O)C2CC2)NC(=O)C2CCCN2C1=O (stereo partly drawn) [Compound 2142] |  | < 10000 nM | > 10000 nM |  |
| CC(C)(C)OCC(=O)N[C@H]1CCCCC/C=C\[C@@H]2C[C@@]2(C(=O)NS(=O)(=O)C2CC2)NC(=O)[C@@H]2C[C@@H](OC(=O)N3Cc4cccc(Cl)c4C3)CN2C1=O [Compound 266] | < 100 nM | < 100 nM |  |  |
| CC(C)(C)OC(=O)N[C@H]1CCC(F)(F)CC/C=C\[C@@H]2C[C@@]2(C(=O)NS(=O)(=O)C2CC2)NC(=O)[C@@H]2C[C@@H](OC(=O)N3Cc4ccccc4C3)CN2C1=O [Compound 1009] | < 100 nM | < 100 nM |  |  |
| C[C@H](NC(=O)[C@@]12C[C@H]1/C=C\CCCCC[C@H](NC(=O)OC(C)(C)C)C(=O)N1C[C@H](OC(=O)N3Cc4cccc(F)c4C3)C[C@H]1C(=O)N2)c1ccc(F)cn1 [Compound 628] | < 1000 nM | < 1000 nM |  |  |
| COCC1(S(=O)(=O)NC(=O)[C@@]23C[C@H]2/C=C\CCCCC[C@H](NC(=O)OC(C)(C)C)C(=O)N2C[C@H](OC(=O)N4Cc5ccccc5C4)C[C@H]2C(=O)N3)CC1 [Compound 103] | < 100 nM | < 100 nM |  |  |
| CC(CO)(CO)C(=O)N[C@H]1CCCCC/C=C\[C@@H]2C[C@@]2(C(=O)NS(=O)(=O)C2CC2)NC(=O)[C@@H]2C[C@@H](OC(=O)N3Cc4cccc(F)c4C3)CN2C1=O [Compound 253] | < 10000 nM | < 100 nM |  |  |
| O=C(CCC(F)(F)F)N[C@H]1CCCCC/C=C\[C@@H]2C[C@@]2(C(=O)NS(=O)(=O)C2CC2)NC(=O)[C@@H]2CCCN2C1=O [Compound 2139] |  |  | < 1000 nM |  |
| O=C(N[C@H]1CCCCC/C=C\[C@@H]2C[C@@]2(C(=O)NS(=O)(=O)C2CC2)NC(=O)[C@@H]2C[C@@H](OC(=O)N3Cc4cccc(F)c4C3)CN2C1=O)C(O)C(F)(F)F (single isomer, unassigned) [Compound 247] | < 100 nM |  |  |  |
| C[C@@H](NC(=O)O[C@@H]1C[C@H]2C(=O)N[C@]3(C(=O)NS(=O)(=O)C4CC4)C[C@H]3/C=C\CCCCC[C@H](NC(=O)OC(C)(C)C)C(=O)N2C1)c1ccc(F)cn1 [Compound 150] | > 10000 nM |  |  |  |
| CC(C)(C)OC(=O)N[C@H]1CCCCC/C=C\[C@@H]2C[C@@]2(C(=O)NS(=O)(=O)C2(C)CC2)NC(=O)[C@@H]2C[C@@H](OC(=O)N3Cc4ccccc4C3)CN2C1=O [Compound 100, (1S,4R,6S,14S,18R)-1,3-Dihydro-isoindole-2-carboxylic acid 14-tert-butoxycarbonylamino-4-(1-methylcyclopropane-1-sulfonyl)aminocarbonyl-2,15-dioxo-3,16-diaza-tricyclo[14.3.0.0^4,6]nonadec-7-en-18-yl ester] |  |  |  | < 100 nM |
